Where a name gives a salt, the structure may show the parent alone.
Key:
Assay type in all cases: physicochemical
[1] = 1-Week Chemical Stability Test, total impurities by HPLC-UV 230 nm
From the text: (§1) The exceptional stability of the orotate salt of aliskiren towards water may also be shown in stability tests.

[2] = dynamic vapour sorption (DVS-1), isothermal water absorption or loss as a function of relative humidity; conditions: for Change in Mass (%) Desorption / Change in Mass (%) Sorption: 25° C., 2 hours after equilibration
Protocol: A clear characterisation of this property is achieved by means of isothermal measurements over predetermined time intervals and predetermined relative humidity using dynamic vapour sorption (DVS-1 from the company Surface Measurement Systems LTD, Marlow, Buckinghamshire, UK). Table 2 illustrates the mass change, i.e. the water absorption or loss as a function of relative humidity at 25° C. for a sample of the orotate salt of aliskiren and for a period of 2 hours after equilibration at each humidity level. The change in mass during the sorption and desorption cycle are shown. The measurement error of this sorption method based on thermogravimetry is about 0.1%.

[3] = stability test towards water, water content after storage; conditions: open container and sealed ampoule, four weeks at 40° C. and 75% relative humidity
From the text: as §1

SMILES	Total Impurities (HPLC-UV, 230 nm), % ([1]; 1 week, 50 C. sealed) [%]	Total Impurities (HPLC-UV, 230 nm), % ([1]; 1 week, 50 C./75% RH) [%]	Total Impurities (HPLC-UV, 230 nm), % ([1]; 1 week, 80 C. sealed) [%]	Total Impurities (HPLC-UV, 230 nm), % ([1]; 1 week, 80 C./75% RH) [%]	Total Impurities (HPLC-UV, 230 nm), % ([1]; Unstressed) [%]	moisture uptake ([2]; at 80% r.h.) [%]	hygroscopicity ([2]; from moisture uptake at 80% r.h.)	Change in Mass (%) Desorption ([2]; relative humidity 0%) [%]	Change in Mass (%) Sorption ([2]; relative humidity 0%) [%]	Change in Mass (%) Desorption ([2]; relative humidity 30%) [%]	Change in Mass (%) Sorption ([2]; relative humidity 30%) [%]	Change in Mass (%) Desorption ([2]; relative humidity 50%) [%]	Change in Mass (%) Sorption ([2]; relative humidity 50%) [%]	Change in Mass (%) Desorption ([2]; relative humidity 70%) [%]	Change in Mass (%) Sorption ([2]; relative humidity 70%) [%]	Change in Mass (%) Desorption ([2]; relative humidity 90%) [%]	Change in Mass (%) Sorption ([2]; relative humidity 90%) [%]	Change in Mass (%) Desorption ([2]; relative humidity 95%) [%]	Change in Mass (%) Sorption ([2]; relative humidity 95%) [%]	water content [3]
COCCCOc1cc(C[C@@H](C[C@H](N)[C@@H](O)C[C@H](C(=O)NCC(C)(C)C(N)=O)C(C)C)C(C)C)ccc1OC [HemiFumarate, aliskiren hemifumarate, reference compound]	1.1	9.3	18.1	64.3	1.1	–	–	–	–	–	–	–	–	–	–	–	–	–	–	–
COCCCOc1cc(CC(C[C@H](N)[C@@H](O)CC(C(=O)NCC(C)(C)C(N)=O)C(C)C)C(C)C)ccc1OC (stereo partly shown) [orotate salt of aliskiren]	0.3	0.3	0.4	0.5	0.3	0.4	slightly-hygroscopic	0.011	0.000	0.611	0.133	0.852	0.214	1.326	0.307	2.818	0.673	7.104	7.104	remains constant
